In patent publication US11154060B2, “Microbiocidal oxadiazole derivatives” (SYNGENTA PARTICIPATIONS AG, priority 2016, dated 2021):

What was measured:
[1] = system: Puccinia recondita f. sp. tritici; assay: Puccinia recondita f. sp. tritici / wheat / leaf disc preventative (brown rust); type: in vivo; settings: foliar, wheat leaf segments cv. Kanzler, inoculated 1 day after application, assessed 7-9 days after application, read-out: control of Puccinia recondita f. sp. tritici compared to untreated control
Experimental: Leaf disks or leaf segments of various plant species are cut from plants grown in a greenhouse. The cut leaf disks or segments are placed in multiwell plates (24-well format) onto water agar. The leaf disks are sprayed with a test solution before (preventative) or after (curative) inoculation. Compounds to be tested are prepared as DMSO solutions (max. 10 mg/ml) which are diluted to the appropriate concentration with 0.025% Tween20 just before spraying. The inoculated leaf disks or segments are incubated under defined conditions (temperature, relative humidity, light, etc.) according to the respective test system. A single evaluation of disease level is carried out 3 to 14 days after inoculation, depending on the pathosystem. Percent disease control relative to the untreated check leaf disks or segments is then calculated. Wheat leaf segments cv. Kanzler are placed on agar in multiwell plates (24-well format) and sprayed with the formulated test compound diluted in water. The leaf disks are inoculated with a spore suspension of the fungus 1 day after application. The inoculated leaf segments are incubated at 19° C. and 75% rh under a light regime of 12 h light/12 h darkness in a climate cabinet and the activity of a compound is assessed as percent disease control compared to untreated when an appropriate level of disease damage appears in untreated check leaf segments (7-9 days after application).

[2] = system: Puccinia recondita f. sp. tritici; assay: Puccinia recondita f. sp. tritici / wheat / leaf disc curative (brown rust); type: in vivo; settings: foliar, wheat leaf segments cv. Kanzler, applied 1 day after inoculation, assessed 6-8 days after application, read-out: control of Puccinia recondita f. sp. tritici compared to untreated control
Experimental: Leaf disks or leaf segments of various plant species are cut from plants grown in a greenhouse. The cut leaf disks or segments are placed in multiwell plates (24-well format) onto water agar. The leaf disks are sprayed with a test solution before (preventative) or after (curative) inoculation. Compounds to be tested are prepared as DMSO solutions (max. 10 mg/ml) which are diluted to the appropriate concentration with 0.025% Tween20 just before spraying. The inoculated leaf disks or segments are incubated under defined conditions (temperature, relative humidity, light, etc.) according to the respective test system. A single evaluation of disease level is carried out 3 to 14 days after inoculation, depending on the pathosystem. Percent disease control relative to the untreated check leaf disks or segments is then calculated. Wheat leaf segments cv. Kanzler are placed on agar in multiwell plates (24-well format). The leaf segments are inoculated with a spore suspension of the fungus. Plates are stored in darkness at 19° C. and 75% rh. The formulated test compound diluted in water is applied 1 day after inoculation. The leaf segments are incubated at 19° C. and 75% rh under a light regime of 12 h light/12 h darkness in a climate cabinet and the activity of a compound is assessed as percent disease control compared to untreated when an appropriate level of disease damage appears in untreated check leaf segments (6-8 days after application).

Phakopsora pachyrhizi = Phakopsora pachyrhizi / soybean / leaf disc preventative (Asian soybean rust); type: in vivo; settings: foliar, soybean leaf disks, inoculated one day after application, assessed 12-14 days after application, read-out: control of Phakopsora pachyrhizi compared to untreated control
Experimental: Leaf disks or leaf segments of various plant species are cut from plants grown in a greenhouse. The cut leaf disks or segments are placed in multiwell plates (24-well format) onto water agar. The leaf disks are sprayed with a test solution before (preventative) or after (curative) inoculation. Compounds to be tested are prepared as DMSO solutions (max. 10 mg/ml) which are diluted to the appropriate concentration with 0.025% Tween20 just before spraying. The inoculated leaf disks or segments are incubated under defined conditions (temperature, relative humidity, light, etc.) according to the respective test system. A single evaluation of disease level is carried out 3 to 14 days after inoculation, depending on the pathosystem. Percent disease control relative to the untreated check leaf disks or segments is then calculated. Soybean leaf disks are placed on water agar in multiwell plates (24-well format) and sprayed with the formulated test compound diluted in water. One day after application leaf discs are inoculated by spraying a spore suspension on the lower leaf surface. After an incubation period in a climate cabinet of 24-36 hours in darkness at 20° C. and 75% rh leaf disc are kept at 20° C. with 12 h light/12 h darkness and 75% rh. The activity of a compound is assessed as percent disease control compared to untreated when an appropriate level of disease damage appears in untreated check leaf disks (12-14 days after application).

Uromyces viciae-fabae = Uromyces viciae-fabae / field bean / leaf disc preventative (faba-bean rust); type: in vivo; settings: foliar, 288 h, 100 ppm in the applied formulation, field bean leaf discs, inoculated two hours after application, 12 days after application, read-out: disease control compared to untreated control leaf discs
Experimental: Leaf disks or leaf segments of various plant species are cut from plants grown in a greenhouse. The cut leaf disks or segments are placed in multiwell plates (24-well format) onto water agar. The leaf disks are sprayed with a test solution before (preventative) or after (curative) inoculation. Compounds to be tested are prepared as DMSO solutions (max. 10 mg/ml) which are diluted to the appropriate concentration with 0.025% Tween20 just before spraying. The inoculated leaf disks or segments are incubated under defined conditions (temperature, relative humidity, light, etc.) according to the respective test system. A single evaluation of disease level is carried out 3 to 14 days after inoculation, depending on the pathosystem. Percent disease control relative to the untreated check leaf disks or segments is then calculated. Field bean leaf discs are placed on water agar in multiwell plates (96-well format) and 10 μl of the formulated test compound diluted in acetone and a spreader pipetted onto the leaf disc. Two hours after application leaf discs are inoculated by spraying a spore suspension on the lower leaf surface. The leaf discs are incubated in a climate cabinet at 22° C. with 18 hour day and 70% relative humidity. The activity of a compound is assessed as percent disease control compared to untreated when an appropriate level of disease damage appears in untreated check leaf disks (12 days after application).

[3] = system: Glomerella lagenarium (Colletotrichum lagenarium); assay: Glomerella lagenarium (Colletotrichum lagenarium) liquid culture / cucumber / preventative (anthracnose); type: cell-based; settings: Colletotrichum orbiculare, liquid culture in PDB, 24° C., 3-4 days after application, read-out: control of Glomerella lagenarium compared to untreated control (inhibition of growth, photometric)
Experimental: Mycelia fragments or conidia suspensions of a fungus prepared either freshly from liquid cultures of the fungus or from cryogenic storage, are directly mixed into nutrient broth. DMSO solutions of the test compound (max. 10 mg/ml) are diluted with 0.025% Tween20 by a factor of 50 and 10 μl of this solution is pipetted into a microtiter plate (96-well format). The nutrient broth containing the fungal spores/mycelia fragments is then added to give an end concentration of the tested compound. The test plates are incubated in the dark at 24° C. and 96% relative humidity. The inhibition of fungal growth is determined photometrically after 2 to 7 days, depending on the pathosystem, and percent antifungal activity relative to the untreated check is calculated. Conidia of the fungus from cryogenic storage are directly mixed into nutrient broth (PDB potato dextrose broth). After placing a (DMSO) solution of test compound into a microtiter plate (96-well format), the nutrient broth containing the fungal spores is added. The test plates are incubated at 24° C. and the inhibition of growth is measured photometrically 3-4 days after application.

CON(C)C(=O)c1ccc(-c2noc(C(F)(F)F)n2)cc1F [Compound 1.2, 2-fluoro-N-methoxy-N-methyl-4-[5-(trifluoromethyl)-1,2,4-oxadiazol-3-yl]benzamide]
≥ 80%: pest or weed control at 200 ppm [1] | pest or weed control at 200 ppm [2] | pest or weed control at 200 ppm (Phakopsora pachyrhizi) | pest or weed control at 100 ppm (Uromyces viciae-fabae)

CON(Cc1c(Cl)cc(Cl)cc1Cl)C(=O)c1ccc(-c2noc(C(F)(F)F)n2)cc1F [Compound 1.3, 2-fluoro-N-methoxy-N-[(2,4,6-trichlorophenyl)methyl]-4-[5-(trifluoromethyl)-1,2,4-oxadiazol-3-yl]benzamide]
≥ 80%: pest or weed control at 100 ppm (Uromyces viciae-fabae)

COC(=O)C1(N(O)C(=O)c2ccc(-c3noc(C(F)(F)F)n3)cc2F)CCN(OC)CC1 [Compound 1.5, methyl 4-[[2-fluoro-4-[5-(trifluoromethyl)-1,2,4-oxadiazol-3-yl]benzoyl]-hydroxy-amino]-1-methoxy-piperidine-4-carboxylate]
≥ 80%: pest or weed control at 200 ppm [1] | pest or weed control at 200 ppm [2] | pest or weed control at 200 ppm (Phakopsora pachyrhizi) | inhibition at 20 ppm [3] | pest or weed control at 100 ppm (Uromyces viciae-fabae)

CON(Cc1ccccc1)C(=O)c1ccc(-c2noc(C(F)(F)F)n2)cc1F [Compound 1.6, N-benzyl-2-fluoro-N-methoxy-4-[5-(trifluoromethyl)-1,2,4-oxadiazol-3-yl]benzamide]
≥ 80%: pest or weed control at 200 ppm [1] | pest or weed control at 200 ppm [2] | pest or weed control at 200 ppm (Phakopsora pachyrhizi) | inhibition at 20 ppm [3] | pest or weed control at 100 ppm (Uromyces viciae-fabae)

CON(Cc1ccco1)C(=O)c1ccc(-c2noc(C(F)(F)F)n2)cc1F [Compound 1.7, 2-fluoro-N-(2-furylmethyl)-N-methoxy-4-[5-(trifluoromethyl)-1,2,4-oxadiazol-3-yl]benzamide]
≥ 80%: pest or weed control at 200 ppm [1] | pest or weed control at 200 ppm [2] | pest or weed control at 200 ppm (Phakopsora pachyrhizi) | inhibition at 20 ppm [3] | pest or weed control at 100 ppm (Uromyces viciae-fabae)

CON(CC1CC1)C(=O)c1ccc(-c2noc(C(F)(F)F)n2)cc1F [Compound 1.8, N-(cyclopropylmethyl)-2-fluoro-N-methoxy-4-[5-(trifluoromethyl)-1,2,4-oxadiazol-3-yl]benzamide]
≥ 80%: pest or weed control at 200 ppm [1] | pest or weed control at 200 ppm [2] | pest or weed control at 200 ppm (Phakopsora pachyrhizi) | inhibition at 20 ppm [3] | pest or weed control at 100 ppm (Uromyces viciae-fabae)

CON(C(=O)c1ccc(-c2noc(C(F)(F)F)n2)cc1F)C(C)COC1CCCCO1 (stereo not shown) [Compound 1.9, 2-fluoro-N-methoxy-N-(1-methyl-2-tetrahydropyran-2-yloxy-ethyl)-4-[5-(trifluoromethyl)-1,2,4-oxadiazol-3-yl]benzamide]
≥ 80%: inhibition at 20 ppm [3] | pest or weed control at 100 ppm (Uromyces viciae-fabae)

C#CCN(OC)C(=O)c1ccc(-c2noc(C(F)(F)F)n2)cc1F [Compound 1.10, 2-fluoro-N-methoxy-N-prop-2-ynyl-4-[5-(trifluoromethyl)-1,2,4-oxadiazol-3-yl]benzamide]
≥ 80%: pest or weed control at 200 ppm [1] | pest or weed control at 200 ppm [2] | pest or weed control at 200 ppm (Phakopsora pachyrhizi) | inhibition at 20 ppm [3] | pest or weed control at 100 ppm (Uromyces viciae-fabae)

CON(C(=O)c1ccc(-c2noc(C(F)(F)F)n2)cc1F)C(C)CO (stereo not shown) [Compound 1.12, 2-fluoro-N-(2-hydroxy-1-methyl-ethyl)-N-methoxy-4-[5-(trifluoromethyl)-1,2,4-oxadiazol-3-yl]benzamide]
≥ 80%: pest or weed control at 200 ppm [2] | inhibition at 20 ppm [3] | pest or weed control at 100 ppm (Uromyces viciae-fabae)

COC(=O)C1(N(O)C(=O)c2ccc(-c3noc(C(F)(F)F)n3)cc2)CCN(OC)CC1 [Compound 2.1, methyl 4-[hydroxy-[4-[5-(trifluoromethyl)-1,2,4-oxadiazol-3-yl]benzoyl]amino]-1-methoxy-piperidine-4-carboxylate]
≥ 80%: pest or weed control at 200 ppm [1] | pest or weed control at 200 ppm (Phakopsora pachyrhizi) | inhibition at 20 ppm [3] | pest or weed control at 100 ppm (Uromyces viciae-fabae)

CON(CC(=O)NC(C)(C)C)C(=O)c1ccc(-c2noc(C(F)(F)F)n2)cc1 [Compound 2.2, N-[2-(tert-butylamino)-2-oxo-ethyl]-N-methoxy-4-[5-(trifluoromethyl)-1,2,4-oxadiazol-3-yl]benzamide]
≥ 80%: pest or weed control at 200 ppm [1] | pest or weed control at 200 ppm [2] | pest or weed control at 200 ppm (Phakopsora pachyrhizi) | inhibition at 20 ppm [3] | pest or weed control at 100 ppm (Uromyces viciae-fabae)

COC(=O)[C@H](C)N(OC)C(=O)c1ccc(-c2noc(C(F)(F)F)n2)cc1 [Compound 2.3, methyl (2S)-2-[methoxy-[4-[5-(trifluoromethyl)-1,2,4-oxadiazol-3-yl]benzoyl]amino]propanoate]
≥ 80%: pest or weed control at 200 ppm [2] | inhibition at 20 ppm [3] | pest or weed control at 100 ppm (Uromyces viciae-fabae)

O=C(NO)c1ccc(-c2noc(C(F)(F)F)n2)cc1 [Compound 2.4, 4-[5-(trifluoromethyl)-1,2,4-oxadiazol-3-yl]benzenecarbohydroxamic acid]
≥ 80%: pest or weed control at 200 ppm [1] | pest or weed control at 200 ppm [2] | pest or weed control at 200 ppm (Phakopsora pachyrhizi) | inhibition at 20 ppm [3] | pest or weed control at 100 ppm (Uromyces viciae-fabae)

COC(=O)C(C)N(OC)C(=O)c1ccc(-c2noc(C(F)(F)F)n2)cc1 (stereo not shown) [Compound 2.9, methyl 2-[methoxy-[4-[5-(trifluoromethyl)-1,2,4-oxadiazol-3-yl]benzoyl]amino]propanoate]
≥ 80%: pest or weed control at 200 ppm [2] | inhibition at 20 ppm [3] | pest or weed control at 100 ppm (Uromyces viciae-fabae)
